Source: ChEMBL document CHEMBL3886380, “Oxazole derivatives useful as modulators of FAAH” (2015)

Molecular target: T1, Fatty-acid amide hydrolase 1 (Homo sapiens, UniProt O00519)
T1 sequence (O00519 whole entry): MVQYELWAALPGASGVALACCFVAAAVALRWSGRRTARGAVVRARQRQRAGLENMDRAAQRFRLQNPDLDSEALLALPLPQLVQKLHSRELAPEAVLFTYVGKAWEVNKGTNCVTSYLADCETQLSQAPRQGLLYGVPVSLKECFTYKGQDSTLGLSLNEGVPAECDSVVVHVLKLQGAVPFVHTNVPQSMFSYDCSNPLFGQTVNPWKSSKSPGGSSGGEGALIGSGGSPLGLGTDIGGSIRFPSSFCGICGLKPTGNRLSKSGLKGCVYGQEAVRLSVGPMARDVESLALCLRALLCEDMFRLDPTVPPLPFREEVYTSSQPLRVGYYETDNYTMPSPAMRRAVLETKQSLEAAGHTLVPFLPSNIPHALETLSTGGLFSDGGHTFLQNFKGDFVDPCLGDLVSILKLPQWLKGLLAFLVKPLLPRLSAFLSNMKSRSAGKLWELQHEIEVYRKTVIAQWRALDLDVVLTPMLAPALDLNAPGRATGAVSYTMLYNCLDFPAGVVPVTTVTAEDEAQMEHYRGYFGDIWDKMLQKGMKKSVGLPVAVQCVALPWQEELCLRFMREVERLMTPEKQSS
Assay: FAAH Assay: Enzyme activity was demonstrated in a radioenzymatic test based on measuring the product of hydrolysis (ethanolamine [3]H) of anandamide [ethanolamine 1-^3H] (American Radiolabeled Chemicals; 1 mCi/ml) with FAAH (Life Sciences (1995), 56, 1999-2005 and Journal of Pharmacology and Experimented Therapeutics (1997), 283, 729-734), Analytical. Biochemistry (2003), 318, 270-5. In …

IC50 [µM] | SMILES
9.15 | C[N+]1(C)CCN(c2ccc(-c3nc(C4CCOCC4)oc3Sc3ccc(Cl)cc3)cn2)CC1
3.09 | CN1CCN(CCOC(=O)N2CCC(c3nc(-c4ccc([S+](C)[O-])cc4)c(Sc4ccc(Cl)cn4)o3)CC2)CC1 (configuration not stated)
